The values below come from BindingDB's records for patent US12522634 (Farsight Medical Technology (Shanghai), 2026).

Experiment [1] deals with Peptidyl-prolyl cis-trans isomerase F, mitochondrial (Human, UniProt P30405). Briefly: Cyclophilin Peptidyl-Prolyl Isomerase Functional Assay.
Method: (§1) Assay buffer was cooled to 10° C. (with stirring) in a precision glass cuvette and inhibitor was added from a DMSO stock solution to afford a final concentration of <1% DMSO. A blank spectrum was obtained and then enzyme and substrate were added and the change in absorbance measured over 5 min. A first order rate was fitted to the absorbance data to obtain a rate constant (first 10 to 15 s were eliminated due to mixing). The catalytic rate was calculated from the enzymatic rate minus the background rate. The enzymatic rate constant, determined in duplicate at each inhibitor concentration, was plotted against inhibitor concentration and a non-linear fit by SigmaPlot generated a Ki.
The target of experiment [2] is Peptidyl-prolyl cis-trans isomerase A (Homo sapiens, UniProt P62937). The experiment is described as above.
Method: as §1

The structures appear in SMILES notation. Starred links: 1 amine or outer side, 2 acyl side, 3 side chain; linkers in the order of their positions; H or OH if unused. Non-standard residues stand in square brackets, D forms with d. Residues, ends and D or L forms follow the SMILES beside them. MeBmt = C/C=C/C[C@@H](C)[C@@H](O)[C@H](NC)C(=O)O; X1 = CN([C@H](OCCN1CCOCC1)C(=O)[*:2])[*:1]; X2 = CN(C)CCO[C@H](C(=O)[*:2])N(C)[*:1]; NMeL = CN[C@@H](CC(C)C)C(=O)O; NMeV = CN[C@H](C(=O)O)C(C)C; Nva = CCC[C@H](N)C(=O)O

Chain of Peptidyl-prolyl cis-trans isomerase F, mitochondrial (P30405 whole entry): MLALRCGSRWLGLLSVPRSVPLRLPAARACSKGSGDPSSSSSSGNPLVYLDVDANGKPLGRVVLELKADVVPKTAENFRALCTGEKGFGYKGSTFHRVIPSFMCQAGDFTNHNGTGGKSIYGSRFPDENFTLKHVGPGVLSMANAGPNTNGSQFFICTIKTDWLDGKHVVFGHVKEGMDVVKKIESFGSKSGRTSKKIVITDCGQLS
Chain of Peptidyl-prolyl cis-trans isomerase A (P62937 whole entry): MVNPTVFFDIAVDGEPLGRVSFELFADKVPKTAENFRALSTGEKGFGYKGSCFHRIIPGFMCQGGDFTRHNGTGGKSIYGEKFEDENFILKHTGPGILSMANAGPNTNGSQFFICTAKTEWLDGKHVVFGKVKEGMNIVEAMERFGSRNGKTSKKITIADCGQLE

In the case of `C/C=C/C[C@@H](C)[C@@H](O)[C@H]1C(=O)N[C@@H](C(C)C)C(=O)N(C)[C@H](OCCN(C)C)C(=O)N(C)[C@@H](CC(C)C)C(=O)N[C@@H](C(C)C)C(=O)N(C)[C@@H](CC(C)C)C(=O)N[C@@H](C)C(=O)N[C@H](C)C(=O)N(C)[C@@H](CC(C)C)C(=O)N(C)[C@@H](CC(C)C)C(=O)N(C)[C@@H](C(C)C)C(=O)N1C` [US12522634, Compound 3] (cyclo(A[dA][NMeL][NMeL][NMeV][MeBmt]V[X2][NMeL]V[NMeL])), the Ki in experiment [1] came out at 5.1 nM. Consider `C/C=C/C[C@@H](C)[C@@H](O)[C@H]1C(=O)N[C@@H](C(C)C)C(=O)N(C)[C@H](OCCN2CCOCC2)C(=O)N(C)[C@@H](CC(C)C)C(=O)N[C@@H](C(C)C)C(=O)N(C)[C@@H](CC(C)C)C(=O)N[C@@H](C)C(=O)N[C@H](C)C(=O)N(C)[C@@H](CC(C)C)C(=O)N(C)[C@@H](CC(C)C)C(=O)N(C)[C@@H](C(C)C)C(=O)N1C` [US12522634, Compound 4] (cyclo(A[dA][NMeL][NMeL][NMeV][MeBmt]V[X1][NMeL]V[NMeL])), for which the Ki in experiment [2] was determined as 2.3 nM; in experiment [1] it was 4.1 nM. In the same order, the values of `C/C=C/C[C@@H](C)[C@@H](O)[C@H]1C(=O)N[C@@H](CCC)C(=O)N(C)[C@H](OCCN(C)C)C(=O)N(C)[C@@H](CC(C)C)C(=O)N[C@@H](C(C)C)C(=O)N(C)[C@@H](CC(C)C)C(=O)N[C@@H](C)C(=O)N[C@H](C)C(=O)N(C)[C@@H](CC(C)C)C(=O)N(C)[C@@H](CC(C)C)C(=O)N(C)[C@@H](C(C)C)C(=O)N1C` [US12522634, Compound 7] (cyclo(A[dA][NMeL][NMeL][NMeV][MeBmt][Nva][X2][NMeL]V[NMeL])) are 9.4 nM and 5.9 nM. In the same order, the values of `C/C=C/C[C@@H](C)[C@@H](O)[C@H]1C(=O)N[C@@H](CCC)C(=O)N(C)[C@H](OCCN2CCOCC2)C(=O)N(C)[C@@H](CC(C)C)C(=O)N[C@@H](C(C)C)C(=O)N(C)[C@@H](CC(C)C)C(=O)N[C@@H](C)C(=O)N[C@H](C)C(=O)N(C)[C@@H](CC(C)C)C(=O)N(C)[C@@H](CC(C)C)C(=O)N(C)[C@@H](C(C)C)C(=O)N1C` [US12522634, Compound 8] (cyclo(A[dA][NMeL][NMeL][NMeV][MeBmt][Nva][X1][NMeL]V[NMeL])) are 39 nM and 35 nM.

By Ki is commonly meant a dissociation constant, usually derived from enzyme kinetics or from competition with a known ligand. Low readings indicate a stronger hold on the target, high ones a looser hold on the target.
